Test results from publication PMC4310727 (Journal of enzyme inhibition and medicinal chemistry, 2012).

Biological target: T1, Glutaredoxin-1 (GRX-1) (Homo sapiens, UniProt P35754)
T1 sequence (P35754 2-106): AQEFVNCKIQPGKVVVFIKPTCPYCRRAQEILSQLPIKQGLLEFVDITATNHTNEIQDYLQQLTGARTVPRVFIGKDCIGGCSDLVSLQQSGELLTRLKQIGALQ
Assay: time-dependent inactivation kinetics
Format: biochemical
Details: read-out: Ki

CC(=O)N[C@@H](CSC(=S)Nc1ccc(NC(=S)SC[C@H](NC(C)=O)C(=O)O)cc1)C(=O)O [2-AAPA, 2-acetylamino-3-[4-(2-acetylamino-2-carboxyethyl-sulfanylthiocarbonylamino)phenylthiocarbamoylsulfanyl]propionic acid]
KI (inactivation): 91.3 µM
